In ChEMBL document CHEMBL4270599, “Synthesis of a 3'-C-ethynyl-β-d-ribofuranose purine nucleoside library: Discovery of C7-deazapurine analogs as potent antiproliferative nucleosides” (Eur J Med Chem, 2018):

How the values were obtained:
Assay type in all cases: functional
HCT-15 [1] = test: Growth inhibition of human HCT15 cells assessed as cell growth at 10^-5 M incubated for 48 hrs by sulforhodamine B assay relative to control; settings: HCT-15, 48 h, read-out: Activity
ACHN = test: Growth inhibition of human ACHN cells assessed as cell growth at 10^-4 M incubated for 48 hrs by sulforhodamine B assay relative to control; settings: read-out: Activity
BT-549 [2] = test: Growth inhibition of human BT549 cells assessed as cell growth at 10^-7 M incubated for 48 hrs by sulforhodamine B assay relative to control; settings: BT-549, 48 h, read-out: Activity
BT-549 [3] = test: Growth inhibition of human BT549 cells assessed as cell growth at 10^-6 M incubated for 48 hrs by sulforhodamine B assay relative to control; settings: BT-549, 48 h, read-out: Activity
PC-3 = test: Cytotoxicity against human PC3 cells after 48 hrs by SRB assay; settings: PC-3, 48 h
NCI-H23 = test: Growth inhibition of human NCI-H23 cells assessed as cell growth at 10^-6 M incubated for 48 hrs by sulforhodamine B assay relative to control; settings: NCI-H23, 48 h, read-out: Activity
HOP-62 = test: Growth inhibition of human HOP62 cells assessed as cell growth at 10^-6 M incubated for 48 hrs by sulforhodamine B assay relative to control; settings: HOP-62, 48 h, read-out: Activity
HCT-15 [4] = test: Growth inhibition of human HCT15 cells assessed as cell growth at 10^-7 M incubated for 48 hrs by sulforhodamine B assay relative to control; settings: HCT-15, 48 h, read-out: Activity
UACC-257 [5] = test: Growth inhibition of human UACC257 cells assessed as cell growth at 10^-7 M incubated for 48 hrs by sulforhodamine B assay relative to control; settings: UACC-257, 48 h, read-out: Activity
OVCAR-4 = test: Growth inhibition of human OVCAR4 cells assessed as cell growth at 10^-7 M incubated for 48 hrs by sulforhodamine B assay relative to control; settings: OVCAR-4, 48 h, read-out: Activity
SNB-19 = test: Growth inhibition of human SNB19 cells assessed as cell growth at 10^-7 M incubated for 48 hrs by sulforhodamine B assay relative to control; settings: SNB-19, 48 h, read-out: Activity
HCT-15 [6] = test: Cytotoxicity against human HCT15 cells after 48 hrs by SRB assay; settings: HCT-15, 48 h
OVCAR-8 = test: Growth inhibition of human OVCAR8 cells assessed as cell growth at 10^-7 M incubated for 48 hrs by sulforhodamine B assay relative to control; settings: OVCAR-8, 48 h, read-out: Activity
HCT-15 [7] = test: Growth inhibition of human HCT15 cells assessed as cell growth at 10^-4 M incubated for 48 hrs by sulforhodamine B assay relative to control; settings: HCT-15, 48 h, read-out: Activity
TK-10 = test: Growth inhibition of human TK10 cells assessed as cell growth at 10^-8 M incubated for 48 hrs by sulforhodamine B assay relative to control; settings: TK-10, 48 h, read-out: Activity
K562 = test: Growth inhibition of human K562 cells assessed as cell growth at 10^-6 M incubated for 48 hrs by sulforhodamine B assay relative to control; settings: K562, 48 h, read-out: Activity
MDA-MB-231 = test: Growth inhibition of human MDA-MB-231 cells assessed as cell growth at 10^-8 M incubated for 48 hrs by sulforhodamine B assay relative to control; settings: MDA-MB-231, 48 h, read-out: Activity
786-0 = test: Growth inhibition of human 786-0 cells assessed as cell growth at 10^-6 M incubated for 48 hrs by sulforhodamine B assay relative to control; settings: 786-0, 48 h, read-out: Activity
SF-295 = test: Growth inhibition of human SF295 cells assessed as cell growth at 10^-6 M incubated for 48 hrs by sulforhodamine B assay relative to control; settings: SF-295, 48 h, read-out: Activity
KM12 = test: Growth inhibition of human KM12 cells assessed as cell growth at 10^-4 M incubated for 48 hrs by sulforhodamine B assay relative to control; settings: KM12, 48 h, read-out: Activity
HCT-15 [8] = test: Growth inhibition of human HCT15 cells assessed as cell growth at 10^-6 M incubated for 48 hrs by sulforhodamine B assay relative to control; settings: HCT-15, 48 h, read-out: Activity
RXF 393 = test: Growth inhibition of human RXF393 cells assessed as cell growth at 10^-7 M incubated for 48 hrs by sulforhodamine B assay relative to control; settings: RXF 393, 48 h, read-out: Activity
SF-268 = test: Growth inhibition of human SF268 cells assessed as cell growth at 10^-5 M incubated for 48 hrs by sulforhodamine B assay relative to control; settings: SF-268, 48 h, read-out: Activity
UACC-62 = test: Growth inhibition of human UACC62 cells assessed as cell growth at 10^-8 M incubated for 48 hrs by sulforhodamine B assay relative to control; settings: UACC-62, 48 h, read-out: Activity
SK-OV-3 = test: Growth inhibition of human SKOV3 cells assessed as cell growth at 10^-4 M incubated for 48 hrs by sulforhodamine B assay relative to control; settings: SK-OV-3, 48 h, read-out: Activity
UACC-257 [9] = test: Growth inhibition of human UACC257 cells assessed as cell growth at 10^-5 M incubated for 48 hrs by sulforhodamine B assay relative to control; settings: UACC-257, 48 h, read-out: Activity
SK-MEL-2 = test: Growth inhibition of human SK-MEL-2 cells assessed as cell growth at 10^-6 M incubated for 48 hrs by sulforhodamine B assay relative to control; settings: SK-MEL-2, 48 h, read-out: Activity
Hs-578T [10] = test: Cytotoxicity against human Hs 578T cells after 48 hrs by SRB assay
HT-29 = test: Growth inhibition of human HT-29 cells assessed as cell growth at 10^-8 M incubated for 48 hrs by sulforhodamine B assay relative to control; settings: HT-29, 48 h, read-out: Activity
Hs-578T [11] = test: Growth inhibition of human Hs 578T cells assessed as cell growth at 10^-7 M incubated for 48 hrs by sulforhodamine B assay relative to control; settings: read-out: Activity
CCRF-CEM = test: Cytotoxicity against human CCRF-CEM cells after 48 hrs by SRB assay
[12] = read-out: LC50 (the source's name)

## C#C[C@@]1(O)[C@@H](CO)O[C@@H](n2cc(I)c3c(N)ncnc32)[C@@H]1O
HCT-15 [1]
  growth at 10 µM: 2 to 3%
ACHN
  growth at 100 µM: 1%
BT-549 [2]
  growth at 0.1 µM: 61 to 76%
BT-549 [3]
  growth at 1 µM: 17 to 32%
PC-3; read-out: GI50
  GI50: 0.0663 to 0.0861 µM
PC-3; [12]
  CC50: > 100 µM
PC-3; read-out: TGI
  TGI: 14.5 to 100 µM
NCI-H23
  growth at 1 µM: 28 to 33%
HOP-62
  growth at 1 µM: 33 to 61%
HCT-15 [4]
  growth at 0.1 µM: 51 to 60%
UACC-257 [5]
  growth at 0.1 µM: 81 to 88%
OVCAR-4
  growth at 0.1 µM: 87 to 91%
SNB-19
  growth at 0.1 µM: 34 to 59%
HCT-15 [6]; read-out: GI50
  GI50: 0.107 to 0.175 µM
HCT-15 [6]; [12]
  CC50: > 100 µM
HCT-15 [6]; read-out: TGI
  TGI: > 100 µM
HCT-15 [6]; read-out: pTGI (converted)
  TGI: > 100 µM
OVCAR-8
  growth at 0.1 µM: 32 to 35%
HCT-15 [7]
  growth at 100 µM: 1%
TK-10
  growth at 0.01 µM: 85 to 94%
K562
  growth at 1 µM: 17 to 22%
MDA-MB-231
  growth at 0.01 µM: 96 to 100%
786-0
  growth at 1 µM: 13 to 23%
SF-295
  growth at 1 µM: 31 to 35%
KM12
  growth at 100 µM: 3 to 9%
HCT-15 [8]
  growth at 1 µM: 11 to 20%
RXF 393
  growth at 0.1 µM: 82 to 90%
SF-268
  growth at 10 µM: 7%
UACC-62
  growth at 0.01 µM: 95%
SK-OV-3
  growth at 100 µM: -9%
UACC-257 [9]
  growth at 10 µM: 6 to 7%
SK-MEL-2
  growth at 1 µM: 11 to 24%
Hs-578T [10]; read-out: GI50
  GI50: 0.55 to 1.12 µM
Hs-578T [10]; [12]
  CC50: > 100 µM
Hs-578T [10]; read-out: TGI
  TGI: 7.12 to 8.62 µM
HT-29
  growth at 0.01 µM: 56 to 73%
Hs-578T [11]
  growth at 0.1 µM: 73 to 84%
CCRF-CEM; read-out: GI50
  GI50: 0.249 to 0.295 µM
CCRF-CEM; read-out: TGI
  TGI: > 100 µM
CCRF-CEM; read-out: pLC50 (the source's name) (converted)
  CC50: > 100 µM
CCRF-CEM; read-out: pTGI
  TGI: > 100 µM
